These results are taken from ChEMBL document CHEMBL1201862, “PubChem BioAssay data set” (2004).

Calls of active or inactive are those of the source.

Assay [1] addresses T1, RNA-binding protein pos-1 (Caenorhabditis elegans, UniProt G5EF15).
T1 sequence (G5EF15 whole entry): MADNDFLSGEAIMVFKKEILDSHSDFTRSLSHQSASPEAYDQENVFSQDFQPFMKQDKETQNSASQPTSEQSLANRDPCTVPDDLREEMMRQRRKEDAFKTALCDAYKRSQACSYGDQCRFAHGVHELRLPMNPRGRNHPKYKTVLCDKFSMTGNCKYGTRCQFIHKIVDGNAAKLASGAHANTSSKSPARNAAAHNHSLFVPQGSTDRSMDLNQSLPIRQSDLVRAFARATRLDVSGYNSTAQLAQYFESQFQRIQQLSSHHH
Description: inhibitors of POS-1/mex-3 RNA binding, dose response, biochemical, fluorescence polarization (AID 1964). (In general: In fluorescence polarisation assays a small probe gives low polarisation when free and higher when bound to something large.)

In assay [2] the target is T2, Replicative DNA helicase DnaB (Mycobacterium tuberculosis, UniProt P9WMR3).
T2 sequence (P9WMR3 whole entry): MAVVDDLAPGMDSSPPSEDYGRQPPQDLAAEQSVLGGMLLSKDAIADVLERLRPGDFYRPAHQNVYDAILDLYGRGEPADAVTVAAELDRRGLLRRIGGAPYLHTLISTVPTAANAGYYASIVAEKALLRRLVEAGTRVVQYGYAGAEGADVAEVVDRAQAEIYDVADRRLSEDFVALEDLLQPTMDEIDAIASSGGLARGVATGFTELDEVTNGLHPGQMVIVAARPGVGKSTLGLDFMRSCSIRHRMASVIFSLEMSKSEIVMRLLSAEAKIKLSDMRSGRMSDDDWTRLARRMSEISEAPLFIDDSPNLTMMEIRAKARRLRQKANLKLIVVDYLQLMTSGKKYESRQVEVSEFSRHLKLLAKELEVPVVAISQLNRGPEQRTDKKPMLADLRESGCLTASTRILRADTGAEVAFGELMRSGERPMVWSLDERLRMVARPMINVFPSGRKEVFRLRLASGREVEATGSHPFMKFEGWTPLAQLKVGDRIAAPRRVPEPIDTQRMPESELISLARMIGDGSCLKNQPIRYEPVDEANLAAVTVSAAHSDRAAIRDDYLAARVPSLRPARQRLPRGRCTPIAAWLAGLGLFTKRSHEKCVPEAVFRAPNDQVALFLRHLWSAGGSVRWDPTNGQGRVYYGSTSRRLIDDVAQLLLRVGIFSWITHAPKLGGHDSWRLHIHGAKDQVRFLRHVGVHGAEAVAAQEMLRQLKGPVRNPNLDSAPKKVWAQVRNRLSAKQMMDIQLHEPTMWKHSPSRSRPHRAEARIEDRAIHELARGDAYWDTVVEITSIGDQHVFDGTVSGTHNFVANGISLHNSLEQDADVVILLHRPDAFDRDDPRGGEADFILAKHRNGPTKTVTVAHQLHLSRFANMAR
Kind of assay: DnaB intein splicing inhibitors, dose response, biochemical, cell-free fluorescence (AID 449749). The assay is classed as functional.

The target of assay [3] is Polyadenylate-binding protein 1 (Homo sapiens, UniProt P11940). Description: PABP1 MLLE–PAM2 interaction inhibitors, dose response, miRNA deadenylation inhibitor project, biochemical, fluorescence polarization, Cy5-PAM2 peptide, secondary (AID 602260). The assay is classed as functional. To be noted: read-out: IC50_Mean.
Sequence of Polyadenylate-binding protein 1 (P11940 whole entry): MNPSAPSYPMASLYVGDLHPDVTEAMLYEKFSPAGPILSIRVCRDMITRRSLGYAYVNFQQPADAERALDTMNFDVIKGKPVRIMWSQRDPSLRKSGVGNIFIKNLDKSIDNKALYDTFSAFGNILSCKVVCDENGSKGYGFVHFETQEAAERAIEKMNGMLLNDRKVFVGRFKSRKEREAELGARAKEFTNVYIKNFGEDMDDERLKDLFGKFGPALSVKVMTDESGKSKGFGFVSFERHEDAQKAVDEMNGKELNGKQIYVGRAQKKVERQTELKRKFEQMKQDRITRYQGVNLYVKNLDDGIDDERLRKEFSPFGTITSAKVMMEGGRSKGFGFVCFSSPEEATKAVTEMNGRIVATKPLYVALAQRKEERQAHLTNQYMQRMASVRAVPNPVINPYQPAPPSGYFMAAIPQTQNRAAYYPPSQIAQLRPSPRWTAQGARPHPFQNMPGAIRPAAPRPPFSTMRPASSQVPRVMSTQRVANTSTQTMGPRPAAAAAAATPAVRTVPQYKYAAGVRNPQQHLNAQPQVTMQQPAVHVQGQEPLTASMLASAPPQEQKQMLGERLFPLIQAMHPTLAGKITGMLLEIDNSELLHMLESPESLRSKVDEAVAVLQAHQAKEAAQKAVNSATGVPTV
For assay [4], the target named is T3, Protein RecA (Mycobacterium tuberculosis, UniProt P9WHJ3).
T3 sequence (P9WHJ3 whole entry): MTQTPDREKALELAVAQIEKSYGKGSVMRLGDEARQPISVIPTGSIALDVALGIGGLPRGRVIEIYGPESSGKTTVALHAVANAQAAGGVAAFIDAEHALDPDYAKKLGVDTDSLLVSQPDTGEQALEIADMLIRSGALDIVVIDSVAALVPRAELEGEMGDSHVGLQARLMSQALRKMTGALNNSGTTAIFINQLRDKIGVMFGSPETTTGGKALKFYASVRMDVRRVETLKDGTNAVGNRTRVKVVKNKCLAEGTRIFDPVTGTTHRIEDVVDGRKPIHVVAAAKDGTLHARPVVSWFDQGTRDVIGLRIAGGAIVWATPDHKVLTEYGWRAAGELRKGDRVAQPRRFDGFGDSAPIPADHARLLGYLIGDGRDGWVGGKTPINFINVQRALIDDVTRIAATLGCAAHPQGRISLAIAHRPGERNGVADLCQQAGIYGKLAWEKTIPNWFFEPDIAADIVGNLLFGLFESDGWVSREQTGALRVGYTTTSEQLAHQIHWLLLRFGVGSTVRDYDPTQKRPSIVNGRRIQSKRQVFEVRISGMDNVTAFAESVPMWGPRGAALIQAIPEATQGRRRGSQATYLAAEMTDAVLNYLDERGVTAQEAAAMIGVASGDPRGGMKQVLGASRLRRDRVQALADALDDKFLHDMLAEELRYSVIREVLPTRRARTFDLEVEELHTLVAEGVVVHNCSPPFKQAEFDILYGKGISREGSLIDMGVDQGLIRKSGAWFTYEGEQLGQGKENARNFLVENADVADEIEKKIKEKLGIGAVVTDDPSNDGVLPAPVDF
Description: Fluorescence Cell-Free Homogeneous Dose Retest to Identify Inhibitors of RecA-Intein Splicing Activity. [Related pubchem assays (depositor defined):AID2097, AID2223, AID489010, AID492950]. The assay is classed as functional.

The target in assay [5] is T4, Tyrosyl-DNA phosphodiesterase 2 (Homo sapiens, UniProt O95551).
T4 sequence (O95551 whole entry): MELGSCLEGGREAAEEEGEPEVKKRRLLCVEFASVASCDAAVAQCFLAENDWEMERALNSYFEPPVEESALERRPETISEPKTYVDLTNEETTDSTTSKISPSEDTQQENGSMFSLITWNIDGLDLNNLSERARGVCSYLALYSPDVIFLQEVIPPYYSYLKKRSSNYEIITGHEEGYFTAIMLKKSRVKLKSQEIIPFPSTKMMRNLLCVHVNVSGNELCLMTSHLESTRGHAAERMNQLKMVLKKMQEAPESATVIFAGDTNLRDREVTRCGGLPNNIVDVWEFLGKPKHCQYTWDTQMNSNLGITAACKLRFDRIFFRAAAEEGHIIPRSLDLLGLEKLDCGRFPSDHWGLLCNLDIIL
Kind of assay: human TDP2 enzyme inhibitors, dose response, biochemical, epi absorbance, IC50 (AID 743297).

Assay [6] in a line: HepG2 cell cytotoxicity, dose response, cytotoxicity control for Shn3 inhibitor project, CellTiter-Glo, cherry-picked (AID 624134). The assay is classed as functional, cell-based.
The nature of assay [7]: control 3'UTR Renilla luciferase suppression, dose response, counter-screen for Shn3 inhibitor project, cell-based, Clone20-Shn3RL, cherry-picked (AID 624133). The assay is classed as functional. A general note: A counterscreen serves to expose hits that act by an unwanted route or on another target.
Assay [8] is described as follows: miR-122 activators in hepatoma reporter cells, dose response, cell-based, Huh7 psiCHECK-miR122, Renilla luciferase, cherry-picked (AID 651956).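 Further: huh7 hepatoma cells stably carrying a psiCHECK-2 miR-122 sensor plasmid; renilla luciferase signal reporting endogenous miR-122 activity after 48 h compound exposure.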 The assay is classed as functional.
A short description of assay [9]: cells. The assay is classed as functional.
The subject of assay [10] is HEK293. Kind of assay: cells. To be noted: Homo sapiens. The assay is classed as functional, cell-based.
A short description of assay [11]: inhibitors of intracellular T. cruzi replication, confirmation, NIH3T3 host cells, beta-gal luminescence (AID 2044).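 Further: intracellular parasites grown in NIH/3T3 mouse fibroblasts as host cells; luminescent beta-galactosidase reporter signal from transgenic T. cruzi replicating inside host cells; inhibitors lower the luminescence signal.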 The assay is classed as functional, cell-based.
Assay [12] is described as follows: cells.

The EC50 is the concentration at which the effect is half-maximal. Broadly, the AC50 is the concentration giving half of the maximal activity seen. With `O=C(O)CSc1cc(NS(=O)(=O)c2ccc(Br)cc2)c2ccccc2c1O`, the EC50 in assay [1] was 20.7 µM (active); in assay [4], 0.244 µM (active). For the same compound, the AC50 in [2] was 0.883 µM (active). The IC50 in assay [3] was > 66 µM (inactive); in assay [5] it was 37.2 µM (inactive).

On to `O=C(CC(O)(C(F)(F)F)C(F)(F)F)Nc1ccc(Cl)c(Cl)c1`, for which the AC50 was 3.7 µM (active) in assay [6], 5.67 µM (active) in [7] and 5.54 µM (active) in [8].

As to `O=C(CNc1cccc2ccccc12)N/N=C/c1ccc([N+](=O)[O-])o1`, the figures for the IC50 in [9] and in assay [10] were 3.24 µM (active) and > 20 µM (inactive), respectively. The results for the EC50 in [11] and in assay [12] were < 0.1 µM (active) and 0.064 µM (active), respectively.

As to `Cc1ccc(NC(=O)C2=C(c3ccccc3)S(=O)(=O)CCS2(=O)=O)cc1`, the IC50 in [9] is 38.3 µM (active). The AC50 in [6] was 12.5 µM (active); in assay [2] it was 2.18 µM (active); in assay [7] it was 4.49 µM (active). The EC50 was 1.97 µM (active) in [11] and 1.01 µM (active) in assay [4].
